In patent publication US8604217B2, “Compound, a process for its preparation, a pharmaceutical composition, use of a compound, a method for modulating or regulating serine/threonine kinases and a serine/threonine kinases modulating agent” (Selvita S.A., priority 2009, dated 2013) one finds IC50 data, which are given here for 8 compounds.

In test [1] the test system is human hepatoma HepG2 cells. As to the kind of experiment: Growth inhibition test (MTS) on HepG2 cells. Type of test: cell-based. Conditions: 72 hours, read-out: HepG2 ED50. The method in brief: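 HepG2 cells in DMEM with 10% FCS were exposed for 72 h at 37 °C, 5% CO2, to 0.1, 0.5, 1, 2.5, 5 and 10 micromol/L compound. MTS was then added for 2 h and absorbance read at 490 nm. % viability was calculated relative to untreated cells set at 100%.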

The subject of test [2] is human breast adenocarcinoma MCF7 cells. As to the kind of experiment: Growth inhibition test (MTS) on MCF7 cells. The test is classed as cell-based. The following applies: Homo sapiens, MCF7, 72 hours, read-out: MCF-7 ED50. As to the method:
(§1) Two thousand cells of human breast adenocarcinoma MCF7 were inoculated into each well of a 96-well microplate (manufactured by Corning Corp.), and using DMEM medium (culture medium) containing 10% fetal calf serum (FCS). Next day, a dimethyl sulfoxide (DMSO) solution of each test compound prepared in a concentration of 10 mmol/L was further diluted with culture medium to the desired concentrations (0.1, 0.5, 1, 2.5, 5 and 10 micromol/L), and the diluted solution was added to each well. The individual wells were further cultured in 5% carbon dioxide at 37° C. for 72 hours. After completion of the culture, 10 μl MTS (3-(4,5-Dimethyl-2-thiazolyl)-5-(carboxymethoxyphenyl)-2-(4-sulfophenyl)-2H-tetrazolium, inner salt assay (CellTiter96® AQueous One Solution Cell Proliferation Assay, Promega) was added to each well, and culturing was performed in 5% carbon dioxide at 37° C. for 2 hours. Using a microplate spectrophotometer (Synergy 2 multi-mode microplate reader (BioTek)), the absorbance of each well was measured at 490 nm. The value for cells not incorporated with a test compound was designated as 100%. By comparing these values with the absorbance difference obtained at the well in which each test compound was added, the cell viability (% viability) after treatment with the test compound was calculated.

Test [3] concerns the target PIM-1 (Homo sapiens (Human), UniProt P11309). As to the kind of experiment: Luminometric kinase assay for PIM1 kinase (Kinase-Glo). Type of test: biochemical. The following applies: 1 μM ATP, 25 min at RT. The essentials: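 Kinase and substrate reacted in 8 mM MOPS/NaOH pH7.0, 0.2 mM EDTA, 2 mM MgCl2 with 1 μM ATP for 25 min at RT, compounds serially diluted from 1 μM. Remaining ATP read by Kinase-Glo luminescence; IC50 from variable-slope sigmoidal fit.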

Test [4] concerns human prostate adenocarcinoma PC3 cells. In words: Growth inhibition test (MTS) on PC3 cells. The test is classed as cell-based. The following applies: Homo sapiens, PC-3, 72 hours, read-out: PC-3 ED50.
The test system of test [5] is human myelomonocytic, biphenotypic leukemia MV4-11 cells. As to the kind of experiment: Growth inhibition test (MTS) on MV4-11 cells. Conditions: Homo sapiens, MV4-11, 72 hours, read-out: MV-4-11 ED50. The test is classed as cell-based. The method in brief:
MV4-

Test [6] deals with human acute lymphocytic leukemia E6.1 Jurkat cells. In words: Growth inhibition test (MTS) on E6.1 Jurkat cells. Type of test: cell-based. The following applies: 72 hours, read-out: Jurkat ED50. As to the method:
as §1, with “Twenty” for “Two”, “acute lumphocytic leukemia E6.1 Jurkat” for “breast adenocarcinoma MCF7”, “Corp.)” for “Corp.), and”, “[…]” for “DMEM”

Sequence of PIM-1 (P11309 whole entry): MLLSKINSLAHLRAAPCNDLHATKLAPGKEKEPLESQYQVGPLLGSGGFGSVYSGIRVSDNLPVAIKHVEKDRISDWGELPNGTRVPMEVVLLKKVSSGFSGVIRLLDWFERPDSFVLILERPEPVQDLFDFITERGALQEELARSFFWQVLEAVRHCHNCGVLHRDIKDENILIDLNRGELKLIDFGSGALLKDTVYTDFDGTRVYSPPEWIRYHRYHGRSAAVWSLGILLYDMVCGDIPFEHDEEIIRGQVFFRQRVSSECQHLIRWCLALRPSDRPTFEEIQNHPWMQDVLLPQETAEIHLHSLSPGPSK

As for `Brc1c(Br)c(Br)c2[nH]c(N3CCCNCC3)nc2c1Br` [Compound 260, 4,5,6,7-tetrabromo-2-(1,4-diazepan-1-yl)-1H-benzo[d]imidazole], the IC50 in test [1] worked out at 7.04 µM; in test [2], 5.65 µM; in test [3], 0.0299 µM; in test [4] it was 5.59 µM; in test [5], 1.45 µM; in test [6] it was 5.35 µM.

As for `Brc1c(Br)c(Br)c2[nH]c(NC3CCCCCCC3)nc2c1Br` [Compound 261, 4,5,6,7-tetrabromo-N-cyclooctyl-1H-benzo[d]imidazol-2-amine], the IC50 in test [1] amounted to 4.29 µM; in test [2], 4.94 µM; in test [3] it was 0.138 µM; in test [4], 3.2 µM; in test [5], 3.41 µM; in test [6], 4.52 µM.

With `CN1CCC(N(C)CC(Nc2nc3c(Br)c(Br)c(Br)c(Br)c3[nH]2)c2ccccc2)CC1` (stereo not drawn) [Compound 263, N-(4,5,6,7-tetrabromo-1H-benzo[d]imidazol-2-yl)-N′-methyl-N′-(1-methylpiperidin-4-yl)-1-phenylethane-1,2-diamine], the IC50 in test [1] was found to be 2.66 µM; in test [2], 2.76 µM; in test [3], 0.0475 µM; in test [4] it was 2.64 µM; in test [5], 2.39 µM; in test [6], 2.56 µM.

For `CCN1CCCC1CNc1nc2c(Br)c(Br)c(Br)c(Br)c2[nH]1` (stereo not drawn) [Compound 265a, 4,5,6,7-tetrabromo-N-((1-ethylpyrrolidin-2-yl)methyl)-1H-benzo[d]imidazol-2-amine], the IC50 in test [1] is 1.8 µM; in test [2], 3.09 µM; in test [3] it was 0.0674 µM; in test [4] it was 4.57 µM; in test [5], 2.22 µM; in test [6] it was 3.62 µM.

As for `CN(C)CC(CNc1nc2c(Br)c(Br)c(Br)c(Br)c2[nH]1)C(O)c1ccccc1` (stereo not drawn) [Compound 272, 2-((4,5,6,7-tetrabromo-1H-benzo[d]imidazol-2-ylamino)methyl)-3-(dimethylamino)-1-phenylpropan-1-ol], the IC50 in test [1] worked out at 2.26 µM; in test [2], 4.51 µM; in test [3], 0.0433 µM; in test [4], 4.87 µM; in test [5] it was 2.42 µM; in test [6], 2.76 µM.

Regarding `N[C@@H]1CCCC[C@H]1Nc1nc2c(Br)c(Br)c(Br)c(Br)c2[nH]1` [Compound 304RR, (1R,2R)-N1-(4,5,6,7-tetrabromo-1H-benzo[d]imidazol-2-yl)cyclohexane-1,2-diamine], the IC50 in test [1] stood at 2.64 µM; in test [2], 2.36 µM; in test [3] it was 0.00526 µM; in test [4], 3.16 µM; in test [5], 0.25 µM; in test [6], 3.15 µM.

For `N[C@H]1CCCC[C@@H]1Nc1nc2c(Br)c(Br)c(Br)c(Br)c2[nH]1` [Compound 304SS, (1S,2S)-N1-(4,5,6,7-tetrabromo-1H-benzo[d]imidazol-2-yl)cyclohexane-1,2-diamine], the IC50 in test [1] was found to be 3.21 µM; in test [2], 5.03 µM; in test [3], 0.0116 µM; in test [4], 5.17 µM; in test [5], 0.98 µM; in test [6], 5.07 µM.

For the compound `COc1ccc(Nc2nc3c(Br)c(Br)c(Br)c(Br)c3[nH]2)cc1OC` [Compound 307, 4,5,6,7-tetrabromo-N-(3,4-dimethoxyphenyl)-1H-benzo[d]imidazol-2-amine], the IC50 in test [1] was determined as 1.23 µM; in test [2], 9.43 µM; in test [3], 0.287 µM; in test [4], 8.31 µM; in test [5], 6.03 µM; in test [6] it was 8.97 µM.
